Experiments:
Influenza A virus = assay: Antiviral activity against oseltamivir-resistant Influenza A virus (A/Puerto Rico/8/1934(H1N1)) infected in MDCK cells at MOI of 10^-3 assessed as decrease in viral load after 18 hrs by immunofluorescence analysis; format: functional, organism-based
[1] = Selectivity index, ratio of CC50 for MDCK cells to IC50 for oseltamivir-resistant Influenza A virus (A/Puerto Rico/8/1934(H1N1)) infected in MDCK cells at MOI of 10^-3 after 18 hrs; format: toxicity, cell-based; conditions: dog, read-out: Ratio CC50/IC50

Compound | IC50 (Influenza A virus) | selectivity ratio at 18 h [1]
COc1ccc2cc(-c3c(C(=O)O)cc(Oc4ccc(N)cc4)cc3C(=O)O)ccc2c1 | 8 µM | 1620
COc1ccc2cc(-c3c(C(=O)[O-])cccc3C(=O)[O-])ccc2c1.[Na+].[Na+] | 8.8 µM | 1480
COc1ccc2cc(-c3c(C(=O)[O-])ccc(Oc4ccc(N)cc4)c3C(=O)[O-])ccc2c1.[Na+].[Na+] | 1 µM | 12000

Source: ChEMBL document CHEMBL4196106, “From Naproxen Repurposing to Naproxen Analogues and Their Antiviral Activity against Influenza A Virus” (J Med Chem, 2018)
